As a reminder, the IC50 is the concentration needed to halve the response being measured.

This is an account of results in patent publication US20250019377A1 (JACOBIO PHARMACEUTICALS CO., LTD, priority 2021, published 2025).

In experiment [1] the target is T1, K-Ras G12V (Homo sapiens, UniProt P01116, G12V). In words: SOS1 catalyzed nucleotide exchange assay (GDP form K-Ras), K-Ras G12V. The settings on record: read-out: K-Ras G12V GDP Biochemical Activity (IC50).
Experiment [2] concerns p-ERK in AGS cells (K-Ras G12D). In words: Phospho-ERK1/2(THR202/TYR204) HTRF assay, AGS. The settings on record: Homo sapiens, 2 h, 2 hours incubation. Type of experiment: cell-based.
Experiment [3] deals with p-ERK in SW620 cells (K-Ras G12V). Briefly: Phospho-ERK1/2(THR202/TYR204) HTRF assay, SW620. The class given is cell-based. As to conditions: Homo sapiens, SW-620, 2 h, 2 hours incubation. A general note: In TR-FRET formats the signal depends on donor and acceptor labels being close together.
Experimental: p-ERK (MAPK pathway) inhibition activity of each of compounds in a variety of K-Ras mutant and K-Ras WT cell lines indicated in Table 23 was evaluated.
Each of cells in culture medium was seeded in 96-well plates at density indicated in Table 23 and then put in a cell incubator to incubate overnight. The next day, the culture medium was removed and the compound diluted in assay medium was added in each well. […] 10 μL of cell lysates from the 96-well plates were transferred to a 384-well plate (Greiner) containing 2.5 μL/well HTRF® pre-mixed antibodies (Cisbio 64AERPEH). The plate was incubated 4 hours at 25° C. and then read HTRF signals on Tecan Spark multimode microplate reader. The data were analyzed using a 4-parameter logistic model to calculate IC50 values.
The test system of the next experiment is AGS cells (K-Ras G12D). In words: 2D cell growth inhibition assay, AGS. The class given is cell-based. The settings on record: Homo sapiens, 144 h, 6 days, absolute IC50.
The subject of experiment [4] is AsPC-1 cells (K-Ras G12D). Briefly: 2D cell growth inhibition assay, AsPC-1. As to conditions: Homo sapiens, ASPC1, 144 h, AsPC-1, K-Ras G12D, 6 days, absolute IC50. The class given is cell-based.
The next experiment has as its system SW620 cells (K-Ras G12V). In words: 2D cell growth inhibition assay, SW620. The class given is cell-based. As to conditions: Homo sapiens, SW-620, 144 h, 6 days, absolute IC50.
Experiment [5] deals with T1, K-Ras G12V. Briefly: biochemical.

T1 sequence (P01116 1-169 isoform P01116-2 G12V): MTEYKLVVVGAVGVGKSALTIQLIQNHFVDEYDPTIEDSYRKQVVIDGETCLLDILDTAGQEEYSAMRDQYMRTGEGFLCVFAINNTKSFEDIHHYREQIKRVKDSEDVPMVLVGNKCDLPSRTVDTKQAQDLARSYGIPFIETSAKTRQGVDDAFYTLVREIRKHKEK

For the compound `C#Cc1c(F)ccc2cc(O)cc(-c3nc(OC(C)C)c4c(N5CCCOCC5)nc(OC[C@@]56CCCN5C[C@H](F)C6)nc4c3F)c12` [Compound 52, 5-ethynyl-6-fluoro-4-(8-fluoro-2-(((2R,7aS)-2-fluorotetrahydro-1H-pyrrolizin-7a(5H)-yl)methoxy)-5-isopropoxy-4-(1,4-oxazepan-4-yl)pyrido[4,3-d]pyrimidin-7-yl)naphthalen-2-ol trifluoroacetic acid], the IC50 turned out to be 1.88 nM on K-Ras G12V [1]; 9.66 nM in experiment [2]; 2.43 nM in experiment [3]; 8.11 nM with AGS cells (K-Ras G12D); 40.4 nM in experiment [4]; 5.66 nM in the experiment with SW620 cells (K-Ras G12V). Besides, it took 16.6 nM to reach half-maximal inhibition at K-Ras G12V [5] (IC50).
Consider `C#Cc1c(F)ccc2cc(O)cc(-c3nc(OC4CC4)c4c(N5CCCOCC5)nc(OC[C@@]56CCCN5C[C@H](F)C6)nc4c3F)c12` [Compound 51, 4-(5-cyclopropoxy-8-fluoro-2-(((2R,7aS)-2-fluorotetrahydro-1H-pyrrolizin-7a(5H)-yl)methoxy)-4-(1,4-oxazepan-4-yl)pyrido[4,3-d]pyrimidin-7-yl)-5-ethynyl-6-fluoronaphthalen-2-ol trifluoroacetic acid], for which the IC50 at K-Ras G12V [1] turned out to be 1.69 nM; in experiment [2] it was 2.27 nM; in experiment [3] it was 8.5 nM; in the experiment on AGS cells (K-Ras G12D), 9.66 nM; in experiment [4], 74.2 nM; with SW620 cells (K-Ras G12V), 10.3 nM. Besides, on K-Ras G12V [5], the IC50 amounted to 22 nM.
`C#Cc1c(F)ccc2cc(O)cc(-c3ncc4c(N5CCCOCC5C)nc(OC[C@@]56CCCN5C[C@H](F)C6)nc4c3F)c12` (mixture of isomers) [Compound 16, 5-ethynyl-6-fluoro-4-(8-fluoro-2-(((2R,7aS)-2-fluorotetrahydro-1H-pyrrolizin-7a(5H)-yl)methoxy)-4-(3-methyl-1,4-oxazepan-4-yl)pyrido[4,3-d]pyrimidin-7-yl)naphthalen-2-ol trifluoroacetic acid]: the IC50 at K-Ras G12V [1] amounted to 1.47 nM; in experiment [2], 2.31 nM; in experiment [3], 19.4 nM; with AGS cells (K-Ras G12D), 18.6 nM; in experiment [4], 133 nM; in the experiment on SW620 cells (K-Ras G12V), 39.5 nM. At K-Ras G12V [5], this compound gave an IC50 of 35.7 nM.
For the compound `C#Cc1c(F)ccc2cc(O)cc(-c3nc(C4CC4)c4c(N5CCCOCC5)nc(OC[C@@]56CCCN5C[C@H](F)C6)nc4c3F)c12` [Compound 35, 4-(5-cyclopropyl-8-fluoro-2-(((2R,7aS)-2-fluorotetrahydro-1H-pyrrolizin-7a(5H)-yl)methoxy)-4-(1,4-oxazepan-4-yl)pyrido[4,3-d]pyrimidin-7-yl)-5-ethynyl-6-fluoronaphthalen-2-ol trifluoroacetic acid], the IC50 at K-Ras G12V [1] came to 5.81 nM; in experiment [2] it was 1.42 nM; in experiment [3], 11.9 nM; with AGS cells (K-Ras G12D) it was 5.63 nM; in experiment [4], 88.5 nM; with SW620 cells (K-Ras G12V), 9.2 nM. For the same compound, the IC50 against K-Ras G12V [5] was found to be 22.1 nM.
As to `C#Cc1c(F)ccc2cc(O)cc(-c3nc(O)c4c(N5CCCOCC5)nc(OC[C@@]56CCCN5C[C@H](F)C6)nc4c3F)c12` [Compound 123, 7-(8-ethynyl-7-fluoro-3-hydroxynaphthalen-1-yl)-8-fluoro-2-(((2R,7aS)-2-fluoro-tetrahydro-1H-pyrrolizin-7a(5H)-yl)methoxy)-4-(1,4-oxazepan-4-yl)pyrido[4,3-d] pyrimidin-5-ol], the IC50 at K-Ras G12V [1] was 2.49 nM; in experiment [2] it was 517 nM; in experiment [3], 803 nM; in the experiment with AGS cells (K-Ras G12D), 8.51 nM; in experiment [4], 2800 nM; with SW620 cells (K-Ras G12V), 525 nM. The IC50 on K-Ras G12V [5] was determined as 156 nM.
